The values below come from patent publication US20070117836A1, “NAPTHALIMIDE DERIVATIVES, METHODS FOR THEIR PRODUCTION AND PHARMACEUTICAL COMPOSITIONS THEREFROM” (priority 2004, published 2007).

What is called IC50 is the concentration needed to halve the response being measured.

One data set concerns healthy animals. The following applies: single dose to healthy mice, 3 mice per group, survival and weights recorded up to 14 days post injection.
Data set [1] deals with Six human cancer cell lines (Hs683, U-373MG, HCT-15, LoVo, A549, MCF-7). The data set can be described thus: MTT test of overall cell growth. The format is cell-based. Conditions: Homo sapiens, 72 h, range of molar concentrations giving 50% inhibition of overall tumor cells growth; MTT, 72 hours incubation, six human cancer cell lines; read-out: IC50. How it is done: In order to characterize the in vitro activity of the compounds of the invention, MTT tests were performed to indirectly and rapidly measure, i.e. within 5 days, the effect of such a compound on the overall cell growth. The test measures the number of metabolically active living cells that are able to transform the yellow product 3-(4,5-dimethylthiazol-2-yl)-2,5-diphenyl tetrazolium bromide (herein referred as MTT) into the blue product formazan dye by mitochondrial reduction. The amount of formazan obtained at the end of the experiment was measured by means of a spectrophotometer and is directly proportional to the number of living cells. Determination of the optical density enables a quantitative measurement of the effect of the investigated compounds as compared to the control condition (untreated cells) and/or to other reference compounds (in casu mitonafide and amonafide).
Six human cancer cell lines described in table 1 were used in the MTT tests. These cell lines cover four histological cancer types, being glioma, colon, lung and breast cancers. Cells were allowed to grow in 96-well micro-wells with a flat bottom with an amount of 100 μl of cell suspension per well with 1,000 to 4,000 cells/well depending on the cell type used. Each cell line was seeded in an MEM 5% serum culture medium.
The detailed experimental procedure was as follows: after a 24-hour period of incubation at 37° C., the culture medium was replaced by 100 μl of fresh medium in which the compound to be tested was dissolved at the following molar concentrations: 10^−9 M, 5.10^−9 M, 10^−8 M, 5.10^−8 M, 10^−7 M, 5.10^−7 M, 10^−6 M, 5.10^−6 M and 10^−5 M. Each experiment was repeated 6 times.
After 72 hours of incubation at 37° C. with (experimental conditions) or without (control condition) the compound to be tested, the medium was replaced by 100 μl MTT dissolved in RPMI at a concentration of 1 mg/ml. The micro-wells were subsequently incubated during 3 hours at 37° C. and centrifuged at 400 g during 10 minutes. MTT was removed and formazan crystals formed were dissolved in 100 μl DMSO. The micro-wells were shaken for 5 minutes and read on a spectrophotometer at wavelengths of 570 nm (maximum formazan absorbance) and 630 nm (background noise).
For each experimental condition, the mean optical density was calculated, as well as the percentage of remaining living cells in comparison with the control.
In general terms: Tetrazolium dyes change colour on reduction, which living cells bring about.

For another data set, the system named is L1210 (Mouse Leukemia). The data set can be described thus: L1210 mouse leukemia model, survival. The format is in vivo, mice. Conditions: Mus musculus, L1210, ip, median day of death treated/control. How it is done:
L1210 is a syngeneic model (Mouse Leukemia) which may be used to define an optimal treatment regimen (doses and schedule) for subsequent testing of drugs in more expensive and time-consuming orthotopic human xenograft models. The model was performed with 5 mice per group, said mice being grafted at day 0 and the tested compounds being injected intraperitoneally (at the dose indicated in table 4) at days 1, 2, 3, 4, 7, 8, 9 and 10 respectively. The data shown in table 4 are T/C values which were calculated by dividing the median day of death in a treated group T by the median day of death in the control group C. T/C values of 130% or more (i.e. a prolongation of mice survival of 30% or more) indicate a significant prolongation of survival.
The experimental procedure of example 25 was repeated with compounds of examples 17, 19, 33 and 35, and the data obtained from this experiment are reported in table 7.

Another data set concerns leukemia models in mice. The following applies: background statement; cited from earlier work.
Data set [2] relates to human tumour xenografts in mice with colon, lung and mammary cancers. The following applies: background statement; cited from earlier work.
Data set [3] concerns primary human solid tumours. The following applies: Ajani et al. Invest New Drugs (1988) 6:79-83; cited from earlier work.
The nature of another data set: in vivo. The following applies: mouse.
The test system of another data set is patients. The following applies: patients receiving five daily doses; leading to some deaths; cited from earlier work.
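For MTD in this document: highest single acute dose (intraperitoneal, intravenous, subcutaneous or oral) tolerated by tumor-free mice, assessed across five dose levels per drug.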

Description for healthy animals: (§1) The maximum tolerated dose (herein after MTD) is defined as the maximum amount of a given drug which can be administered acutely (i.e. in one intraperitoneal, intravenous, subcutaneous or oral single dose) to healthy animals, i.e. animals not grafted with tumors. The survival times and weights of the animals are recorded up to 14 days post injection. Five different doses of each drug are used for the determination of the MTD index. […] Each experimental group comprised 3 mice for the determination of the MTD index (expressed in mg/kg).
Description for in vivo: as §1

As to `CN(C)CCN1C(=O)c2cccc3cc(/N=C\c4cc(O)ccc4O)cc(c23)C1=O.Cl` [Example 34], the MTD with healthy animals came out at 40 mg/kg.
`CN(C)CCN1C(=O)c2cccc3cc(N)cc(c23)C1=O` [amonafide, N-(2-dimethylaminoethyl)-3-amino-1,8-naphthalimide, reference compound]: in data set [1], the IC50 lay within 1000 to 5000 nM. The response vs control in vivo at 2.5 mg/kg in the data set on L1210 (Mouse Leukemia) (read-out: T/C (%), dose 2.5 mg/kg intraperitoneally at days 1, 2, 3, 4, 7, 8, 9 and 10) was found to be 120%. The response vs control in vivo at 5 mg/kg with L1210 (Mouse Leukemia) (read-out: T/C (%), dose 5 mg/kg intraperitoneally at days 1, 2, 3, 4, 7, 8, 9 and 10) amounted to 140%. Also, the response vs control in vivo at 10 mg/kg with L1210 (Mouse Leukemia) (read-out: T/C (%), dose 10 mg/kg intraperitoneally at days 1, 2, 3, 4, 7, 8, 9 and 10) is 120%. Besides, in the data set with L1210 (Mouse Leukemia) (read-out: T/C (%), dose 20 mg/kg intraperitoneally at days 1, 2, 3, 4, 7, 8, 9 and 10), the response vs control in vivo at 20 mg/kg was 120%. Besides, in the data set on leukemia models in mice, the “activity in leukemia models in mice” value is reported as “only moderate activity”. Moreover, in data set [2], the “activity in human tumour xenografts in mice” value is recorded as “no activity”. Besides, the “activity in primary human solid tumours in vitro” value in data set [3] is “poor activity”. For the same molecule, the MTD at 14 days in the data set “in vivo” worked out at 40 mg/kg. Besides, in the data set with patients, the myelotoxicity in patients result is on record as “substantial myelotoxicity”.
